# Test results as given in patent US20180258381A1, “BIO-LAMINA BIOREACTORS AND METHODS OF MAKING AND USING THE SAME” (Oregon State University, priority 2015, published 2018).
# What was measured:
# MDH = MDH activity reactivity assay (methanol SOUR), inhibitor trials; assay type: cell-based, M. trichosporium OB3b
# Experimental: The procedure for measuring methanol dehydrogenase (MDH) activity by measuring the specific oxygen uptake rate (SOUR) has been tested on M. trichosporium OB3b cultures grown both in batch and in the chemostat. M. trichosporium OB3b cells were harvested using centrifugation. The supernatant was poured off and the cells were re-suspended in fresh media lacking a carbon source. Phosphate buffer solution was added to a sample chamber in which dissolved oxygen (DO) was measure with a DO probe. When the DO of the solution stabilized, the re-suspended cells were added to the sample chamber to measure baseline oxygen uptake by the cells without a carbon food source present. Methanol was then added to test for MDH activity. The difference in the oxygen uptake rates illustrates the MDH activity of the culture.
# (§1) Metabolic activity test methods have been developed to monitor specific activities in M. trichosporium OB3b cultures. A naphthalene oxidation assay was used to determine if sMMO is being expressed. An ethylene to ethylene oxide reaction assay and a methane oxidation assay was used to quantify MMO activity, and a methanol oxidation assay was used to estimate MDH activity. Concurrent batch metabolic tests can be conducted to investigate methanol inhibition of methane oxidation, cyclopropane to cyclopropanol conversion and concurrent/subsequent cyclopropanol inhibition of MDH activity, the effect of cyclopropanol inhibition on growth yield, and the effects of high oxygen concentration.
# (§2) The effect of salts NaCl, NH4Cl and CaCl2 on MMO and MDH activity was evaluated using the reactivity assays described above.
# sMMO = target: T1, sMMO (Methylosinus trichosporium, UniProt P27353); assay: sMMO activity reactivity assay, inhibitor trials; assay type: cell-based, M. trichosporium OB3b
# T1 construct: endogenous in cells; host or cells: M. trichosporium OB3b whole cells, grown without copper (chemostat or batch)
# T1 sequence (P27353 1-526): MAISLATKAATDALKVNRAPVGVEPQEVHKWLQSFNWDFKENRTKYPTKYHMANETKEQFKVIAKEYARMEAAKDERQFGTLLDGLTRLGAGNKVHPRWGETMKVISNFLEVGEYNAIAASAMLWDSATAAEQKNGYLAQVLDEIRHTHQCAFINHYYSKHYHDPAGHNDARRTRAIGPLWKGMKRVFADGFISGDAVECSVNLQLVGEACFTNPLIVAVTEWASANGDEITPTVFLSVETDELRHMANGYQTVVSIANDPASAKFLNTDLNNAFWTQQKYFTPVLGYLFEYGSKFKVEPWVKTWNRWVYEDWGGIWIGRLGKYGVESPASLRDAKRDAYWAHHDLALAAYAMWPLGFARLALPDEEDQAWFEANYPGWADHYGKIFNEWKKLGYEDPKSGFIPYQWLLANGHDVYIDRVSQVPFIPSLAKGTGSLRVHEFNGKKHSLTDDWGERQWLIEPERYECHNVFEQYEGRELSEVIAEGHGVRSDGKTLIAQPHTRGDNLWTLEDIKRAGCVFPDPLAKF
# T1 sequence (P27354 1-394 partner): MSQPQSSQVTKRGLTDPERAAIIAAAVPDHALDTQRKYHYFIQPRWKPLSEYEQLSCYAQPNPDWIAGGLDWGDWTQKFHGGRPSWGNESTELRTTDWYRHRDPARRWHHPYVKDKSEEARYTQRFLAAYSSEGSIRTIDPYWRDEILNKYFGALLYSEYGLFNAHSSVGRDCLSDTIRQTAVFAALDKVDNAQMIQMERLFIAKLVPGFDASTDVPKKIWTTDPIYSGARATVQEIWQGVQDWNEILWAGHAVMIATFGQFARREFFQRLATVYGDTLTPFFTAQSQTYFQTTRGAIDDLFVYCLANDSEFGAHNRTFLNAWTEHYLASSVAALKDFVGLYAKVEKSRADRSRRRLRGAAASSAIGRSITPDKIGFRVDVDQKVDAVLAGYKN
# T1 sequence (P27355 1-169 partner): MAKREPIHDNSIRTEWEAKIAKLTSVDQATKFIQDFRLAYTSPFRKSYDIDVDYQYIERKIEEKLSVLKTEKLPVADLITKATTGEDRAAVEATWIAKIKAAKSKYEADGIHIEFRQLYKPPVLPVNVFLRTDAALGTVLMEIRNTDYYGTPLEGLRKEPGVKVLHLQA
# Experimental: M. trichosporium OB3b cultures were grown under plus copper (pMMO expressed) or minus copper (sMMO expressed) conditions using chemostat or batch culture conditions. Aliquots of culture (˜100 ml) were harvested by centrifugation, and concentrated 50-fold in fresh media. Pelleting cells in this manner ensured that all residual methane was eliminated, increased ease of measuring protein, and made activity assays as brief as possible. Assays were performed in 30 ml crimp cap reaction vials with 4 ml of media (either +Cu or −Cu) with 10 mM sodium formate. To initiate assays, 100 µl of the 50× cell suspension was added to reaction vials with a plastic syringe. Short descriptions of activity assays follow.
# Due to the relative insolubility of methane, large volumes should be added to reaction vials to achieve concentrations in the aqueous phase (Cw) above the concentration of methane where the velocity of methane consumption (V) is equal to 0.5Vmax for minus copper grown M. trichosporium OB3b cultures. These large methane additions make direct measurement of methane consumption in short-term assays unlikely, therefore the accumulation of ethylene oxide (ETO) upon the oxidation of ethylene (ETH) was used as a surrogate measurement. Reaction vials were prepared as described above and 5 ml of ETH added as an overpressure. The appearance of ETO was monitored by gas chromatography evaluation of Cw over the course of 30 minutes (FIG. 39A). Killed cells (boiled) served as a negative control. pMMO is a copper enzyme and can be inhibited by allylthiourea (ATU), while sMMO (an iron enzyme) is insensitive to inhibition by ATU. The ETH to ETO assay described above was repeated with 10 μM ATU to discriminate between sMMO and pMMO activity.
# as §1, with “concentration. Once stable operation and baseline metabolic monitoring in the chemostat have been achieved, inhibitor can be added to evaluate chemostat operation under methanol-producing conditions.” for “concentration.”
# MMO activity has been measured via both methane (CH4) consumption and ethylene oxide (ETO) production upon oxidation of the non-growth substrate ethylene (ETH, Table 4). While ETO production matches methane consumption for pMMO, ETH is not as good a substrate for sMMO as methane. Nevertheless, the ETO accumulation assay is quick (<30 min) and can be used to screen for activity before starting a larger experiment.
# as §2
smiles,measurement,setting,value
"C1CC1 [CP, cyclopropane]","Fraction of Activity Remaining, MDH",MDH; CP 03 μmol,0.9
same,"Fraction of Activity Remaining, MDH",MDH; CP 32 μmol,0.2
same,"Fraction of Activity Remaining, MDH",MDH; CP 64 μmol,0.1
same,"Fraction of Activity Remaining, sMMO",sMMO; CP 03 μmol,0.9
same,"Fraction of Activity Remaining, sMMO",sMMO; CP 32 μmol,0.9
same,"Fraction of Activity Remaining, sMMO",sMMO; CP 64 μmol,0.8
